Results published in the supplement of paper PMC4932681.

Legend:
[1] = test system: MCF-7; assay: relative IC50 (midpoint of fitted logistic curve, plateau may be below 50% inhibition; CellTiter-Glo viability); higher = less potent; details: 72 h
Outline: (§1)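 CellTiter-Glo viability was the readout, taken on a PHERAstar and normalised to vehicle-only and positive controls. It was measured after breast cancer cell lines and their resistant derivatives spent 72 h at 37 °C in 384-well plates containing library drugs at five concentrations spanning a 10 000-fold range, with 1 μM of the selecting drug in the medium of resistant lines. From logistic dose–response fits in the Breeze pipeline came drug sensitivity score, relative IC50 (curve midpoint) and top-dose inhibition.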

[2] = test system: T-47D Tam2; assay: as above; details: 4-OH-tamoxifen in medium 1 µM; 72 h
Outline: as §1

[3] = test system: BT-474 Tam2; assay: as above; details: 4-OH-tamoxifen in medium 1 µM; 72 h
Outline: as §1

[4] = test system: T-47D Tam1; assay: as above; details: 4-OH-tamoxifen in medium 1 µM; 72 h
Outline: as §1

[5] = test system: BT-474; assay: as above; details: 72 h
Outline: as §1

[6] = test system: T-47D; assay: as above; details: 72 h
Outline: as §1

[7] = test system: ZR-75-1 Tam1; assay: as above; details: 4-OH-tamoxifen in medium 1 µM; 72 h
Outline: as §1

[8] = test system: MCF-7; assay: drug sensitivity score (DSS) (DSS (dimensionless)); higher = more sensitive; extreme values may be limits of the assay; details: 72 h
Method: (§2)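 FIMM FO2B library drugs were tested at 5 concentrations (10,000-fold range) for 72 h, with CellTiter-Glo viability normalised to DMSO and benzethonium chloride controls. The Drug Sensitivity Score (DSS) is computed from the fitted logistic dose-response curve (area-based; 0 = inactive). Resistant lines and the 'in 1µM tamoxifen' arms were tested in 1 µM 4-OH-tamoxifen.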

[9] = test system: T-47D Tam2; assay: as above; details: 4-OH-tamoxifen in medium 1 µM; 72 h
Method: as §2

[10] = test system: MCF-7 Tam1; assay: as above; details: 4-OH-tamoxifen in medium 1 µM; 72 h
Method: as §2

[11] = test system: ZR-75-1 Tam2; assay: as above; details: 4-OH-tamoxifen in medium 1 µM; 72 h
Method: as §2

[12] = test system: BT-474 Tam1; assay: as above; details: 4-OH-tamoxifen in medium 1 µM; 72 h
Method: as §2

[13] = test system: ZR-75-1; assay: as above; details: 72 h
Method: as §2

[14] = test system: BT-474 Tam2; assay: as above; details: 4-OH-tamoxifen in medium 1 µM; 72 h
Method: as §2

[15] = test system: T-47D Tam1; assay: as above; details: 4-OH-tamoxifen in medium 1 µM; 72 h
Method: as §2

[16] = test system: BT-474; assay: as above; details: 72 h
Method: as §2

[17] = test system: T-47D; assay: as above; details: 72 h
Method: as §2

[18] = test system: ZR-75-1 Tam1; assay: as above; details: 4-OH-tamoxifen in medium 1 µM; 72 h
Method: as §2

[19] = test system: BT-474 Tam1; assay: relative IC50 (midpoint of fitted logistic curve, plateau may be below 50% inhibition; CellTiter-Glo viability); higher = less potent; details: 4-OH-tamoxifen in medium 1 µM; 72 h
Outline: as §1

[20] = test system: ZR-75-1 Tam2; assay: as above; details: 4-OH-tamoxifen in medium 1 µM; 72 h
Outline: as §1

[21] = test system: ZR-75-1; assay: as above; details: 72 h
Outline: as §1

Compound	relative IC50 ([1]; 4-OH-tamoxifen in medium 0 µM)	relative IC50 ([1]; 4-OH-tamoxifen in medium 1 µM)	relative IC50 [2]	relative IC50 [3]	relative IC50 [4]	relative IC50 ([5]; 4-OH-tamoxifen in medium 1 µM)	relative IC50 ([6]; 4-OH-tamoxifen in medium 0 µM)	relative IC50 ([6]; 4-OH-tamoxifen in medium 1 µM)	relative IC50 [7]	drug sensitivity score ([8]; 4-OH-tamoxifen in medium 0 µM)	drug sensitivity score ([8]; 4-OH-tamoxifen in medium 1 µM)	drug sensitivity score [9]	drug sensitivity score [10]	drug sensitivity score [11]	drug sensitivity score [12]	drug sensitivity score ([13]; 4-OH-tamoxifen in medium 0 µM)	drug sensitivity score ([13]; 4-OH-tamoxifen in medium 1 µM)	drug sensitivity score [14]	drug sensitivity score [15]	drug sensitivity score ([16]; 4-OH-tamoxifen in medium 0 µM)	drug sensitivity score ([16]; 4-OH-tamoxifen in medium 1 µM)	drug sensitivity score ([17]; 4-OH-tamoxifen in medium 0 µM)	drug sensitivity score ([17]; 4-OH-tamoxifen in medium 1 µM)	drug sensitivity score [18]	relative IC50 [19]	relative IC50 ([5]; 4-OH-tamoxifen in medium 0 µM)	relative IC50 [20]	relative IC50 ([21]; 4-OH-tamoxifen in medium 0 µM)	relative IC50 ([21]; 4-OH-tamoxifen in medium 1 µM)
O=C(CCCCCCC(=O)Nc1ccc([C@H]2O[C@@H](CSc3nc(-c4ccccc4)c(-c4ccccc4)o3)C[C@@H](c3ccc(CO)cc3)O2)cc1)NO [Tubacin]	1.36 µM	1.86 µM	3.71 µM	3.84 µM	1.84 µM	3.38 µM	3.43 µM	3.71 µM	3.35 µM	5.52	5.63	1.62	0.69	0.331	0.976	0.333	0.912	1.25	3.65	1.29	4.44	2.87	4.31	1.41					
CC(C)n1cnc2c(NCCc3ccc(O)cc3)nc(-c3csc4ccccc34)nc21 [StemRegenin 1]	4.4 µM	0.335 µM	1.57 µM	2.83 µM	3.41 µM	3.38 µM	4.12 µM	3.48 µM		1.85	11.7	4.97	0.218	1.51	7.32	0	0.414	5.49	1.95	1.47	5.07	1.21	2.41	0.327	2.12 µM				
CC(=O)OC[C@H]1O[C@@H]([S-])[C@H](OC(C)=O)[C@@H](OC(C)=O)[C@@H]1OC(C)=O.CCP(CC)CC.[Au+] [Auranofin]	0.561 µM	0.376 µM	0.584 µM	0.785 µM	0.0653 µM	1.02 µM	0.804 µM	0.223 µM		6.78	2.93	4.19	1.48	0.324	5	0.254	1.38	3.68	11.5	3.43	4.22	1.36	4.22	0.421	0.853 µM	0.719 µM			
Cc1ccc(NC(=O)c2ccc(CN3CCN(C)CC3)cc2)cc1Nc1nc(-c2cccnc2)cs1 [Masitinib]	1.54 µM	3.77 µM	3.23 µM	2.57 µM	1.78 µM	3.64 µM	3.57 µM	3.46 µM		3.51	1.67	1.99	1.1	1.85	4.94	0	0.352	5.8	2.68	0.359	3.44	1.85	2.81	0.886	3.35 µM		2.58 µM	> 10 µM	
CC[C@]1(O)C[C@H]2CN(CCc3c([nH]c4ccccc34)[C@@](C(=O)OC)(c3cc4c(cc3OC)N(C=O)[C@H]3[C@@](O)(C(=O)OC)[C@H](OC(C)=O)[C@]5(CC)C=CCN6CC[C@]43[C@@H]65)C2)C1 [Vincristine]	0.0249 µM	0.0265 µM	0.0268 µM	0.0142 µM	0.0385 µM	0.0119 µM	0.00441 µM	0.0881 µM		19.1	16.8	17.3	0.209	8.05	30.7	17.3	10.9	30.8	19.3	21.4	31.3	13.8	6.49	7.19	0.0209 µM	0.00233 µM	0.116 µM	0.00369 µM	0.0215 µM
O=c1[nH]cc(F)c(=O)[nH]1 [Fluorouracil]	1.43 µM	> 10 µM	> 10 µM	> 10 µM	> 10 µM	> 10 µM		> 10 µM	> 10 µM	2.93	0	0	0	3.05	0	1.39	0.596	0	0	0	0	0.0675	0	0	> 10 µM	> 10 µM			
CC[C@@H]1C(=O)N(C)c2cnc(Nc3ccc(C(=O)NC4CCN(C)CC4)cc3OC)nc2N1C1CCCC1 [BI 2536]	0.109 µM		0.0754 µM		0.0678 µM	0.0204 µM				3.44	10.1	4.25	0	1.18	1.24	2.89	2.08	0.933	3.5	3.73	7.89	3.7	0.711	1		0.0285 µM			
CCC/C=C/C=C/C(=O)O[C@H]1/C(=C/C(=O)OC)C[C@H]2C[C@H]([C@@H](C)O)OC(=O)C[C@H](O)C[C@@H]3C[C@H](OC(C)=O)C(C)(C)[C@](O)(C[C@@H]4C/C(=C/C(=O)OC)C[C@H](/C=C/C(C)(C)[C@]1(O)O2)O4)O3 [Bryostatin 1]			> 0.1 µM	> 0.1 µM		> 0.1 µM	> 0.1 µM	> 0.1 µM		1.22	0.563	0	1.73	0	0	0.213	0	0	0.0014	0	0	0	0	1.05	> 0.1 µM	> 0.1 µM	> 0.1 µM		> 0.1 µM
C#Cc1cccc(Nc2ncnc3cc(OCCOC)c(OCCOC)cc23)c1 [Erlotinib]	> 10 µM	> 10 µM	0.37 µM	1.96 µM	1.23 µM	1.25 µM		> 10 µM		0	0	5.31	0.0215	0.0461	9.3	0	0.0315	7.08	3.91	3.4	9.97	0.57	0	0.136	1.37 µM	1.77 µM		> 10 µM	
CCc1cncnc1N1CCN(Cc2nc3ccc(C(F)(F)F)cc3[nH]2)CC1	2.92 µM	1.1 µM	2.31 µM	3.22 µM	1.57 µM	4.06 µM	1.53 µM			1.96	2.72	1.89	0.774	1.31	3.7	0.27	1.12	2.05	2.79	1.64	2.18	2.8	0.435	0.834	3.23 µM	3.3 µM			
COc1cc2ncnc(Nc3ccc(F)c(Cl)c3)c2cc1OCCCN1CCOCC1 [Gefitinib]		4.19 µM	1.41 µM	0.176 µM	> 10 µM	0.115 µM		> 10 µM		2.5	1.2	4.57	0	1.16	24.9	0.0359	1.45	20.3	0	9.4	22.7	0.0062	0	1.51	0.0654 µM	1.03 µM			
C[C@]12O[C@H](C[C@]1(O)CO)n1c3ccccc3c3c4c(c5c6ccccc6n2c5c31)CNC4=O [Lestaurtinib]		> 1 µM	> 1 µM		> 1 µM	0.16 µM	> 1 µM		> 1 µM	0.382	0	0	0.391	0.0147	2.16	0	0	0.589	0	0.345	3.7	0	0.579	0	0.349 µM			> 1 µM	
CS(=O)(=O)c1ccc(C(=O)Nc2ccc(Cl)c(-c3ccccn3)c2)c(Cl)c1 [Vismodegib]	> 10 µM	> 10 µM	> 10 µM	> 10 µM	> 10 µM	> 10 µM	> 10 µM	> 10 µM	> 10 µM	0	0	0	0	0	0.264	0	0	0	0	0	0	0	0	0		> 10 µM		> 10 µM	> 10 µM
Cc1ccc(C(=O)Nc2ccc(CN3CCN(C)CC3)c(C(F)(F)F)c2)cc1C#Cc1cnc2cccnn12			0.337 µM		0.0432 µM	0.458 µM		0.391 µM		0	0.178	1.72	0.248	0.0834	1.26	0	0.047	0	11.6	0	1.07	0.62	1.21	0.0086	0.406 µM	> 1 µM		> 1 µM	
CN(Cc1cnc2nc(N)nc(N)c2n1)c1ccc(C(=O)N[C@@H](CCC(=O)O)C(=O)O)cc1 [Methotrexate]			> 10 µM	> 10 µM	> 10 µM	> 10 µM	> 10 µM	> 10 µM		0.338	3.04	0	0	0.0419	0	6.76	0	0	0	0	0	0	0	1.07	> 10 µM	> 10 µM		0.197 µM	> 10 µM
C=C(c1ccc(C(=O)O)cc1)c1cc2c(cc1C)C(C)(C)CCC2(C)C [Bexarotene]	> 10 µM	> 10 µM	> 10 µM	> 10 µM					> 10 µM	0	0	0	3.15	0.973	0	0.367	0.925	0	3.44	0	0.345	0.69	0.469	0	> 10 µM	> 10 µM			
